This is an account of results in BindingDB's records for patent US20240336562 (Hangzhou Innogate Pharma, 2024).

Broadly, the IC50 is the concentration that inhibits the measured activity by half. Lower therefore signals greater potency.

This assay has as its target NACHT, LRR and PYD domains-containing protein 3 (Homo sapiens, UniProt Q96P20). In words: Inhibitory Activity of NLRP3. The procedure:
ELISA plate, and incubated at 4° C. overnight. Discard the liquid in the ELISA plate and wash it 4 times with eluent. Add 300 μL/well reagent diluent and incubate the ELISA plate at room temperature for 1.5 hours. Wash the plate with eluent for four times. Then 100 μL/well samples were added to ELISA plate coated with IL1β and incubated at room temperature for 2 h. Wash the plate with eluent for four times. Each well was added with 100 μL detection antibody and incubated at 37° C. for 2 h. Wash the plate with eluent for four times. Add 100 μL of HRP labeled secondary antibody to each well. Incubate at 37° C. for 1 hour. Wash the plate with eluent for four times. Add 100 μL of A+B substrate per well. Incubate at 37° C. for 30 minutes. Add 100 μL STOP solution per well. Gently shake the plate for a few seconds. Read the absorption value at 450 nm on the EnVision multifunction reader and calculate the Inhibitory rate according to the following formula: Inhibition %=(Ave_H-Sample)/(Ave_H-Ave_L). Among them, Ave_H represents the average value of DMSO well, Sample represents the average value of compound well, and Ave_L represents the average value of 10 μM positive control well. The log value of concentration was taken as the X-axis and the percentage inhibitory rate as the Y-axis. […]

Where only a bound is given, the exact number is not on record here.

Chain of NACHT, LRR and PYD domains-containing protein 3 (Q96P20 whole entry, the tested form may be a part): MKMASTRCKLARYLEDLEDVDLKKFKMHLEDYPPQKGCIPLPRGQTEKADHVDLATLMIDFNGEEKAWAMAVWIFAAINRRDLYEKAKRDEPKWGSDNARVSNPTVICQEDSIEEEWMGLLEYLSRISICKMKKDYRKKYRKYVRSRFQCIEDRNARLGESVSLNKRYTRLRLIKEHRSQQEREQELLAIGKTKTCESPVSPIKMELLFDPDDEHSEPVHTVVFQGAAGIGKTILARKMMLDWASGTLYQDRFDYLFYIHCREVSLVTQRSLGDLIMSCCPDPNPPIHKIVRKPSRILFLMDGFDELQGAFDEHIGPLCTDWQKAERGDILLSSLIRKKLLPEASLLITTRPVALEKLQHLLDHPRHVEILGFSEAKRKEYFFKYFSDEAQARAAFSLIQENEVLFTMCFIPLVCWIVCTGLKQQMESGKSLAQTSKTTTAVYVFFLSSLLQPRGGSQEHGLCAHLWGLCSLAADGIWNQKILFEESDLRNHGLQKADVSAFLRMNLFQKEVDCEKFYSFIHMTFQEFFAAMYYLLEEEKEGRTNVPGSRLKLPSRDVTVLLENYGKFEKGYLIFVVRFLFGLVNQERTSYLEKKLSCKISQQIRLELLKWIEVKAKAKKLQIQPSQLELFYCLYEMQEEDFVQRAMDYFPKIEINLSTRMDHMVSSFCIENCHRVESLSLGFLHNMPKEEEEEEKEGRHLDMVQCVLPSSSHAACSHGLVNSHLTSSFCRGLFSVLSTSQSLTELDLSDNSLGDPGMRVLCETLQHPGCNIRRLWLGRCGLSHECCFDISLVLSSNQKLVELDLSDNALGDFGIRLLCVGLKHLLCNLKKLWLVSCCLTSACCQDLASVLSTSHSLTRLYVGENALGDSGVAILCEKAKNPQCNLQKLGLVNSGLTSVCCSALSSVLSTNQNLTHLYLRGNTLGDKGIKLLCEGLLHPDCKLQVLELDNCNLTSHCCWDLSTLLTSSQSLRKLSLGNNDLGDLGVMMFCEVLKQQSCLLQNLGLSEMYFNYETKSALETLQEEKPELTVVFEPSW

Take `COc1cc(-c2c(C)cc3c(c2NC(=O)NS(=O)(=O)c2ccn(C4CC(=C(F)F)C4)n2)CCC3)ccn1` (stereo unspecified) [US20240336562, Compound 22]: the IC50 is under 25 nM.
